Measurements from US20230115675A1, “METHODS OF TREATING CANCER” (The Broad Institute, Inc., priority 2020, published 2023).
Where two headings read alike, the source gives them in different places.

Columns and labels:
MON cells = experiment: Viability after treatment with drugs in the presence of metal salts; type: cell-based; conditions: for cell death promoted by Zinc: 10 μM ZnCl2
Method: Metal binding compounds can induce a toxic phenotype either by sequestration (chelation) of metals from essential factors or by shuttling (e.g., an ionophore) of metals to cellular compartments where they are toxic.
The viability of MON cells was measured following treatment with increasing doses of indicated drugs in the presence of 10 μM FeCl2, FeCl3, ZnCl2, NiCl, CuCl2, or CoCl2 (FIG. 13). The viability of NCIH2030 cells was measured following treatment with increasing doses of indicated drugs in the presence of 10 μM FeCl2, FeCl3, ZnCl2, NiCl, CuCl2, or CoCl2 (FIG. 14).

143B rho0 cells = experiment: Viability of 143B and 143B Rho0 cells; type: cell-based; conditions: 72 hours
Method: (§1) To establish if this effect is mediated by the electron transfer chain (ETC), 143B rho0 cells (lacking mitochondrial DNA) and their parental controls (143B) were tested.

NCHIH2030 cells = experiment: Viability in media containing glucose or galactose; type: cell-based; conditions: glucose replaced with galactose in the media
Method: FIG. 32G-L show exemplary viability results of NCHIH2030 cells grown in the presence of 10 mM glucose or 10 mM galactose in the media after 72 hours (Pyrithione-Cu is Pyrithione-CuCl2 (1:1); TMT-Cu is TMT-CuCl2 (1:1); 8HQ-Cu is 8-HQ-CuCl2 (1:1); Disulfiram-Cu is Disulfiram-CuCl2 (1:1); NSC319726-Cu is NSC319726-Cu Cl2 1(1:1); AntiA is Antimycin A).
as §1

A549 cell lines = experiment: Whole genome CRISPR/Cas9 deletion screens with copper bound ionophores; type: cell-based; conditions: positive selection
Method: These genes included FDX1, protein lipoylation enzymes (LIAS, LIPT1, and DLD) and subunits of the lipoylated protein complex pyruvate dehydrogenase (DLAT, PDHA1, and PDHB).
FIG. 54A-E show exemplary plots of the log fold change versus the calculated p-value of FDX1 (A), DLAT (B), DLD (C) and LIAS (D) genes from the two whole genome CRISPR/Cas9 deletion screens in A549 cell lines for two concentrations of elesclomol-Cu (40 nM and 100 nM). (E) The correlation scores of FDX1 mRNA expression with the viability of 724 cancer cell lines as previously determined (4) for the different concentrations of elesclomol.

tumors = experiment: Lipoic acid staining as biomarker of sensitivity
Text: Lipoic acid was stained in FDX1 KO cells by an immunohistochemistry assay.

ABC1 cells = experiment: Elesclomol sensitivity of single cell clones with AAVS1 or FDX1 deletion; type: cell-based; conditions: in the presence of 1 uM CuCl2
[1] = Tsvetkov et al., Nat Chem Bio, 2019; cited from earlier work
FDX1 = target: T1, FDX1 (Homo sapiens, UniProt P10109); conditions: cited from earlier work; for binding to FDX1: previously shown
T1 sequence (P10109 61-184): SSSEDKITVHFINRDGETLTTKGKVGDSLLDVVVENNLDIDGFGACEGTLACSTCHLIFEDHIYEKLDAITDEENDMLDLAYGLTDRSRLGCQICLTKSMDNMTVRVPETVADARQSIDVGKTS

[2] = system: lipoyl-DLAT and lipoyl-DLST; experiment: Western blot of lipoylated proteins; type: cell-based
Method: CRISPR KO FDX1 cell lines or CRISPR KO LIAS cell lines were created and were assessed for levels of lipoylated proteins lipoyl-DLAT and lipoyl-DLST by Western Blot (FIG. 8).
Lipoic acid is a strong binder of copper, making it plausible that elesclomol bound copper could directly affect the lipoylated proteins. Indeed, the addition of elesclomol at concentrations as low as 10 nM reduced the levels of lipoylated proteins without dramatically affecting the protein levels (FIG. 36 and FIG. 37).
The levels of lipoylation decrease following treatment of A549 cells with 1 μM elesclomol (+CuCl2) (FIG. 26).

[3] = system: multiple cell line models; experiment: Elesclomol-induced cell death depending on copper availability (supplementation, TTM chelation, serum); type: cell-based
Text: The sensitivity of cells to elesclomol is dependent on copper availability. […] Copper is not supplemented in the media (RPMI) and therefore the availability of copper is restricted to the abundance of copper in serum, which can strongly vary. […] Thus, the efficacy of elesclomol is dependent on extracellular and intracellular copper availability.

three cell lines = experiment: Pre-treatment with compounds that block known cell death pathways; type: cell-based
Text: To further establish which cell death pathways might be mediating the elesclomol induced copper-dependent cell death, a chemical approach was undertaken using compounds that block critical niches of known cell death pathways. […] As controls, ferroptosis-inducing GPX4 inhibitor (ML162) and apoptosis-inducing proteasome inhibitor (bortezomib) were used. […] Ferroptosis or apoptosis-altering compounds (as shown in the ML162 and bortezomib controls) had no effect on elesclomol-copper-induced cell death. […] The slight changes observed are most likely due to the copper chelating properties of the molecule. […] Given the absolute dependency and regulation of this cell death pathway by copper, this process is referred to as ‘cuproptosis’ for simplicity.

[4] = cited from earlier work
Biomarker-positive cells = experiment: Cell culture washout (short exposure mimicking PK); type: cell-based; conditions: for sensitivity of biomarker-positive cells: high FDX1 expression vs biomarker negative
Method: […] Panels D and Panel E show the relative changes in metabolites as measured in ABC1(D) and A549 (E) 24 hours after a 2 hour pulse treatment with 100 nM elesclomol.
Biomarker-positive cells are sensitive to elesclomol-Cu(II) treatment corresponding to measured concentrations and kinetics measured in mice pharmokinetic (PK) studies.
Study simulates short exposure time that mimics the pharmokinetic (PK) properties of elesclomol-Cu(II).
Data supports Cmax driven activity profile. Cells will be used to establish a SubQ xenograft model where different copper ionophores could be analyzed for their efficacy.

A549 cells = experiment: Viability after FDX1 or LIAS gene deletion; type: cell-based
Text: It has been previously shown that ferredoxin 1 (FDX1) is an important mediator of elesclomol-induced toxicity. […] To better understand the potential downstream mediators of cuproptosis, a CRISPR/Cas9 deletion strategy was used. […] In all conditions, FDX1 gene was the highest scoring hit, emphasizing the importance of this gene in elesclomol mediated toxicity (FIG. 33). […] The lipoic acid pathway mediates the lysine lipoylation of specific enzymes (DLAT, DLST, DBT, GCSH) that is crucial for their function (FIG. 34). […] This hypothesis was particularly appealing as lipoylation is required for mitochondrial respiration and lipoic acid has shown to have a high affinity binding to copper.

HCM18 cells = experiment: Viability of HCM18 control and Bak/Bax deleted cells; type: cell-based; conditions: HCM18 Bak/Bax knock out vs control
Text: FIG. 32A-F show exemplary viability results of HCM18 control cells or […] deletion cells after treatment with indicate concentrations of different compounds (Pyrithione-Cu is Pyrithione-CuCl2 (1:1); TMT-Cu is TMT-CuCl2 (1:1); 8HQ-Cu is 8-HQ-CuCl2 (1:1); Disulfiram-Cu is Disulfiram-CuCl2 (1:1); NSC319726-Cu is NSC319726-Cu Cl2 1(1:1); AntiA is Antimycin A).
Both iron and copper can generate highly reactive hydroxyl radical (.OH) from O2.— and H2O2 in the cell via the Fenton reaction. In the case of iron, this can result in lipid radicals that induce ferroptosis, a non-apoptotic cell death. […] As such, to determine if elesclomol induced cell death is apoptotic, a genetic approach was undertaken using the HCM18 cells that have the crucial apoptosis effectors (Bak and Bax) knocked out (FIG. 29). […] However, the ability of elesclomol-copper to induce cell death was unaffected (FIG. 11). Other copper binding molecules were tested in these cell lines and in all cases the efficacy of these compounds was unaffected by the genetic perturbation of the apoptosis pathway (FIG. 32).

lipid peroxidation = experiment: Lipid peroxidation; type: cell-based
OVISE cells = experiment: Viability after LIAS or FDX1 gene deletion; type: cell-based
[5] = Tsvetkov et al., Nat Chem Bio, 2019

With Oc1cccc2cccnc12 [8HQ, Oxyquinoline] the “cell death promoted by Iron” value (MON cells; 10 μM FeCl2, FeCl3, to a lower extent than copper) was “also able to promote the cell death”, the “sensitivity of 143B rho0 cells compared with parental 143B” value (143B rho0 cells) was “equally sensitive” and the “effect of shift to mitochondrial metabolism on sensitivity” value (from here on “effect of shift”) (NCHIH2030 cells) was “rather mild”.
For CCN(CC)C(=S)[S-].CCN(CC)C(=S)[S-].[Cu+2] [Cu-DDC], the “effect of deletion of FDX1, protein lipoylation and PDH genes” value (A549 cell lines) was “promotes resistance”.
In the case of C/C(=N\NC(=S)N1CCC1)c1ccccn1 [NSC-319726], the “cell death promoted by Zinc” value (MON cells; to a lower extent than copper) is reported as “also able to promote the cell death” and the “sensitivity of 143B rho0 cells compared with parental 143B” value (143B rho0 cells) is reported as “equally sensitive”.
With [O-][n+]1ccccc1[S-].[O-][n+]1ccccc1[S-].[Zn+2] [Pyrithione, Pyrithione Zinc] the “cell death promoted by Zinc” value (MON cells; to a lower extent than copper) was “also able to promote the cell death”, the “sensitivity of 143B rho0 cells compared with parental 143B” value (143B rho0 cells) was “equally sensitive” and the “effect of shift” value (NCHIH2030 cells) was “rather mild”.
For CN(C)C(=S)SC(=S)N(C)C [TMT, tetra methyl thiuram monosulfide], the “sensitivity of 143B rho0 cells compared with parental 143B” value (143B rho0 cells) was “equally sensitive” and the “effect of shift” value (NCHIH2030 cells) was “rather mild”.
For CCN(CC)C(=S)SSC(=S)N(CC)CC [disulfiram, tetraethylthiuram disulfide], the “cell death promoted by Zinc” value (MON cells; to a lower extent than copper) was “also able to promote the cell death”, the “sensitivity of 143B rho0 cells compared with parental 143B” value (143B rho0 cells) was “slightly more sensitive” and the “sensitivity of tumors with increased levels of lipoic acid” value (tumors) was “sensitive”.
In the case of CN(NC(=O)CC(=O)NN(C)C(=S)c1ccccc1)C(=S)c1ccccc1 [elesclomol, Elesclomol], the “effect of decrease of FDX1 beyond certain threshold” value (ABC1 cells) is given as “increases the cell resistance”, the “copper dependence of killing” value [1] is given as “copper dependent” and the “FDX1 activity in vitro” value (FDX1; [5]) is given as “inhibits FDX1 activity”. For the same compound, the “binding to FDX1” value (FDX1) was “direct target”, the “binding to FDX1” value (FDX1; listed as Elesclomol) was “directly binds” and the “lipoyl-DLAT and lipoyl-DLST protein levels” value ([2]; 1 μM over 6 hours) was “decreased over time”. The levels of lipoylation ([2]; A549 cells, 1 μM (+CuCl2)) was “decrease”, the “concentration that reduced the levels of lipoylated proteins” value ([2]; without dramatically affecting the protein levels) was no more than 10 nM and the “selectivity of metal binding” value (MON cells; among compounds of the cluster) was “most selective binding to copper”. For the same compound, the “sensitivity in media lacking serum” value ([3]; completely reversed by addition of copper) was “increased resistance”, the “elesclomol-induced cell death upon addition of copper” value ([3]; copper 1 μM in media or 1:1 ratio with compound) was “strongly augment” and the “elesclomol induced cell death upon chelation of copper with tetrathiomolybdate (TTM)” value ([3]; multiple cell line models) was “completely blocks”. The “variability of efficacy with copper supplementation” value ([3]; subset of ovarian cancer cell lines) was “strongly reduces the variability”, the “sensitivity of 143B rho0 cells compared with parental 143B” value (143B rho0 cells) was “slightly more sensitive” and the “block of cell death by copper chelation” value (three cell lines; three cell lines tested, TTM) was “only copper chelation by TTM, was able to block”. The “Phase II trial outcome” value ([4]; in combination with paclitaxel) was “may provide a cancer progression-free survival benefit”, the “Phase III trial outcome” value ([4]; in vivo) was “failed” and the “sensitivity of tumors with increased levels of lipoic acid” value (tumors) was “sensitive”. For the same compound, the “sensitivity of biomarker-positive cells” value (Biomarker-positive cells) was “more sensitive”, the “effect of deletion of LIAS” value (A549 cells) was “sufficient to promote resistance” and the “effect of shift” value (NCHIH2030 cells) was “increasingly more sensitive”.
For CN([N-]C(=O)CC(=O)[N-]N(C)C(=[SH+])c1ccccc1)C(=[SH+])c1ccccc1.[Cu] [elesclomol-Cu(II)], the “efficacy in Bak/Bax deleted cells” value (HCM18 cells) was “unaffected”, the “effect of deletion of FDX1, protein lipoylation and PDH genes” value (A549 cell lines) was “promotes resistance” and the “block of cell death by pan-caspase inhibitors, Ferrostatin-1, Necrostatin-1, antioxidants” value (three cell lines; pre-treatment of cells) was “did not block”. For the same compound, the “change in lipid peroxidation” value (lipid peroxidation) was “did not induce a profound change”.
In the case of CN1C(c2ccccc2)=[SH][Cu+2]23[SH]=C(c4ccccc4)N(C)[N]2C(=O)CC(=O)[N]13 [elesclomol-Cu(II)], the “effect of deletion of LIAS or FDX1 in OVISE cells” value (OVISE cells) is given as “resistance”, the “substrate of FDX1” value (FDX1; [5]) is given as “neo-substrate of FDX1” and the “biomarker selective cell killing after short exposure” value (Biomarker-positive cells; 2 hour exposure at 200 nM followed by washout) is given as “sufficient to effect biomarker selective cell killing”. For the same compound, the “sensitivity of biomarker-positive cells” value (Biomarker-positive cells) was “sensitive”, the “effect of deletion of FDX1 in A549 cells” value (A549 cells; A549) was “relative resistance” and the “effect of deletion of FDX1” value (A549 cells; multiple cell models) was “conferred resistance”.
In the case of CC(=O)O[C@H]1C(=O)[C@@]2(C)[C@H]([C@H](OC(=O)c3ccccc3)[C@]3(O)C[C@H](OC(=O)[C@H](O)[C@@H](NC(=O)c4ccccc4)c4ccccc4)C(C)=C1C3(C)C)[C@]1(OC(C)=O)CO[C@@H]1C[C@@H]2O [paclitaxel], the “efficacy in Bak/Bax deleted cells” value (HCM18 cells) is reported as “strongly inhibited”.
